Results on 14 compounds are retold here after ChEMBL document CHEMBL4190163 (2016).

Assay [1] deals with PC-3. The assay is described as follows: Cytotoxicity against human PC3 cells after 48 hrs by MTS assay. It counts as functional. Particulars: PC-3, 48 h. A general note: Tetrazolium dyes change colour on reduction, which living cells bring about.
Assay [2] concerns BT-474. The assay is described as follows: Cytotoxicity against human BT474 cancer stem cell spheroids assessed as reduction in cell viability at 5 to 10 uM after 5 to 6 days by MTS assay. The format is functional.
Assay [3] deals with MDA-MB-231. The assay is described as follows: Cytotoxicity against human MDA-MB-231 cells after 48 hrs by MTS assay. The note with it: MDA-MB-231, 48 h. It counts as functional.
Assay [4] relates to MIA PaCa-2. The assay is described as follows: Cytotoxicity against human MIAPaCa2 cells after 48 hrs by MTS assay. It counts as functional. Particulars: MIA PaCa-2, 48 h.
For assay [5], the system named is DU-145. The assay is described as follows: Cytotoxicity against human DU145 cancer stem cell spheroids assessed as reduction in cell viability at 5 to 10 uM after 5 to 6 days by MTS assay. The format is functional.
Assay [6] has as its system JIMT-1. The assay is described as follows: Cytotoxicity against human JIMT1 cells after 48 hrs by MTS assay. The note with it: JIMT-1, 48 h. The format is functional.
In assay [7] the test system is BT-474. The assay is described as follows: Cytotoxicity against human BT474 cells after 48 hrs by MTS assay. Particulars: BT-474, 48 h. The format is functional.
For assay [8], the system named is DU-145. The assay is described as follows: Disruption of preformed spheroids in human DU145 cancer stem cells at 5 to 10 uM after 4 days by microscopic analysis. The format is functional.
The subject of assay [9] is DU-145. The assay is described as follows: Cytotoxicity against human DU145 cells after 48 hrs by MTS assay. The format is functional. The note with it: DU-145, 48 h.
In assay [10] the test system is BT-474. The assay is described as follows: Disruption of preformed spheroids in human BT474 cancer stem cells at 5 to 10 uM after 4 days by microscopic analysis. The format is functional.
Assay [11] deals with DU-145. The assay is described as follows: Cytotoxicity against human DU145 cancer stem cell spheroids assessed as reduction in cell viability at 5 uM after 5 to 6 days by MTS assay. It counts as functional.
In assay [12] the test system is BT-474. The assay is described as follows: Cytotoxicity against human BT474 cancer stem cell spheroids assessed as reduction in cell viability at 5 uM after 5 to 6 days by MTS assay. It counts as functional.
Assay [13] concerns BT-474. The assay is described as follows: Potency index, ratio of salinomycin CC50 to test compound CC50 for human BT474 cells. It counts as functional.
Assay [14] relates to MIA PaCa-2. The assay is described as follows: Potency index, ratio of salinomycin CC50 to test compound CC50 for human MIAPaCa2 cells. The format is functional.
In assay [15] the test system is MDA-MB-231. The assay is described as follows: Potency index, ratio of salinomycin CC50 to test compound CC50 for human MDA-MB-231 cells. The format is functional.
Assay [16] deals with DU-145. The assay is described as follows: Potency index, ratio of salinomycin CC50 to test compound CC50 for human DU145 cells. It counts as functional.
Assay [17] has as its system BT-474. The assay is described as follows: Cytotoxicity against human BT474 cancer stem cell spheroids assessed as reduction in cell viability up to 20 uM after 3 to 5 days by MTS assay. It counts as functional, cell-based.
Assay [18] has as its system DU-145. The assay is described as follows: Cytotoxicity against human DU145 cancer stem cell spheroids assessed as reduction in cell viability up to 20 uM after 3 to 5 days by MTS assay. It counts as functional, cell-based.
Assay [19] relates to BT-474. The assay is described as follows: Disruption of preformed spheroids in human BT474 cancer stem cells at 20 uM after 3 days by microscopic analysis. It counts as functional, cell-based.
Assay [20] deals with DU-145. The assay is described as follows: Disruption of preformed spheroids in human DU145 cancer stem cells at 20 uM after 3 days by microscopic analysis. The format is functional, cell-based.
The subject of assay [21] is BT-474. The assay is described as follows: Disruption of preformed spheroids in human BT474 cancer stem cells at 7.5 uM after 3 days by microscopic analysis. The format is functional, cell-based.
For assay [22], the system named is DU-145. The assay is described as follows: Disruption of preformed spheroids in human DU145 cancer stem cells at 7.5 uM after 3 days by microscopic analysis. The format is functional, cell-based.

Structures are written as SMILES. Activity calls are given as the source filed them. The rule behind the calls is not given here.

In the case of `CCCCCCCCCCCCCCCCOC[C@@H](CO[C@@H]1O[C@H](CN)[C@@H](O)[C@H](O)[C@H]1N)OC`, the CC50 in assay [1] came out at 11 µM; in assay [3] it was 5.5 µM; in [4], 7 µM; in assay [6], 4.2 µM; in assay [7] it was 11.5 µM; in assay [9] it was 6 µM. Also, the CC90 in assay [1] worked out at 14 µM; in [3] it was 7 µM; in assay [4], 12 µM; in assay [6], 6.5 µM; in assay [7], 14 µM; in [9], 8.5 µM. Further, the Activity in assay [2], in assay [5], in [8] and in assay [10] was 100% in each case.

For `CCCCCCCCCCCCCCCCOCCCO[C@@H]1O[C@H](CN)[C@@H](O)[C@H](O)[C@H]1N`, the Activity is on record as over 95% in assay [11]; 100% in assay [2]; 100% in assay [5]; 100% in assay [8]; over 95% in assay [12]; 100% in assay [10]. Moreover, the half-maximal cytotoxic concentration (CC50) is 8 µM in assay [1]; 4.5 µM in [3]; 6.5 µM in assay [4]; 4 µM in [6]; 8.5 µM in assay [7]; 6 µM in assay [9]. The CC90 in [1] was determined as 14 µM; in assay [3] it was 7 µM; in assay [4], 13 µM; in [6] it was 6 µM; in [7], 17.5 µM; in [9], 8.5 µM.

On to `CCCCCCCCCCCCCCCCOC[C@@H](N)CO[C@@H]1O[C@H](CO)[C@@H](O)[C@H](O)[C@H]1N`, for which the half-maximal cytotoxic concentration (CC50) stood at 9 µM in [1]; 6 µM in assay [3]; 8.5 µM in [4]; 5.5 µM in assay [6]; 15.5 µM in assay [7]; 6 µM in assay [9]. For the same compound, the CC90 in [1] was 14 µM; in [3] it was 9 µM; in [4], 14 µM; in assay [6], 7.5 µM; in assay [7] it was 28 µM; in [9], 9 µM. In addition, the Activity in assay [2], in assay [5], in assay [8] and in assay [10] was 100% in each case.

As for `CCCCCCCCCCCCCCCCOC[C@H](CO[C@@H]1O[C@H](CN)[C@@H](O)[C@H](O)[C@H]1N)O[C@@H]1O[C@H](CN)[C@@H](O)[C@H](O)[C@H]1N`, the cytotoxic concentration (CC50) in assay [3] is over 30 µM.

Regarding `O=C(O)CCCc1ccc(N(CCCl)CCCl)cc1` [CHLORAMBUCIL], the CC50 in assay [3] is over 150 µM.

Regarding `CCCCCCCCCCCCCCCCOC[C@@H](CO[C@@H]1O[C@H](CN)[C@@H](O)[C@H](O)[C@H]1N1C(=O)c2ccccc2C1=O)OC`, the CC50 in assay [1] was 15 µM; in [3] it was 20 µM; in assay [9] it was over 30 µM.

Regarding `CCCCCCCCCCCCCCCCOC[C@H](CN)O[C@@H]1O[C@H](CO)[C@@H](O)[C@H](O)[C@H]1N`, the CC50 turned out to be 9.5 µM in assay [1]; 12 µM in assay [3]; 15 µM in assay [4]; 14 µM in [6]; 25 µM in assay [7]; 17.5 µM in [9]. Also, the CC90 in [1] was 17 µM; in [3], 17.5 µM; in [4] it was 28 µM; in assay [6], 19 µM; in assay [7], over 30 µM; in assay [9] it was 25 µM.

Take `CCCCCCCCCCCCCCCCOC[C@H](CN=[N+]=[N-])O[C@@H]1O[C@H](CO)[C@@H](O)[C@H](O)[C@H]1N`: the cytotoxic concentration (CC50) was determined as 6 µM in assay [1]; 11 µM in assay [3]; 11.5 µM in assay [4]; 9.5 µM in assay [6]; 22 µM in assay [7]; 12.5 µM in assay [9]. Further, the CC90 came to 15 µM in [1]; 15 µM in [3]; 18.5 µM in assay [4]; 13.5 µM in assay [6]; 28 µM in [7]; 18 µM in assay [9].

Turning to `CCCCCCCCCCCCCCCCOC[C@H](CO[C@@H]1O[C@H](CO)[C@@H](O)[C@H](O)[C@H]1N)NC(=O)CCCCCCCCCCCCCCC`, the half-maximal cytotoxic concentration (CC50) in assay [3] was over 30 µM.

With `CCCCCCCCCCCCCCCCOC[C@@H](CO[C@H]1O[C@H](CN)[C@@H](O)[C@H](O)[C@H]1N)OC`, the Activity is given as over 95% in [11]; 100% in assay [2]; 100% in assay [5]; 100% in assay [8]; over 95% in [12]; 100% in [10]. Further, the half-maximal cytotoxic concentration (CC50) came out at 3.5 µM in assay [1]; 3 µM in assay [3]; 3.5 µM in [4]; 3.5 µM in assay [6]; 7.5 µM in assay [7]; 5.2 µM in assay [9]. Also, the CC90 in assay [1] is 6 µM; in [3], 4.5 µM; in [4], 6.5 µM; in [6], 4.9 µM; in assay [7], 9.5 µM; in assay [9] it was 7.4 µM. Further, the Ratio in assay [13] was 2; in assay [14] it was 2; in [15], over 6; in assay [16] it was over 4.

Consider `CCCCCCCCCCCCCCCCOC[C@H](CO[C@@H]1O[C@H](CO)[C@@H](O)[C@H](O)[C@H]1N)NC(=O)OC`, for which the 50% cytotoxic concentration (CC50) in assay [1] stood at 20 µM; in assay [3], 16 µM; in assay [4], 18 µM; in assay [6], 12.5 µM; in assay [7], 23 µM; in assay [9] it was 14 µM. Besides, the CC90 is 29 µM in assay [1]; 19 µM in [3]; 29 µM in [4]; 15 µM in assay [6]; 29 µM in assay [7]; 19 µM in assay [9].

In the case of `CCCCCCCCCCCCCCN`, the outcome in [17], in assay [18], in [19] and in [20] was inactive.

For `CC[C@@H](C(=O)[C@@H](C)[C@@H](O)[C@H](C)[C@@H]1O[C@@H]([C@@H](CC)C(=O)O)CC[C@@H]1C)[C@H]1O[C@]2(C=C[C@@H](O)[C@]3(CC[C@@](C)([C@H]4CC[C@](O)(CC)[C@H](C)O4)O3)O2)[C@H](C)C[C@@H]1C` [SALINOMYCIN], the CC50 is over 20 µM in assay [3], 6.5 µM in assay [4], 14 µM in [7] and over 20 µM in assay [9]. Further, the result in assay [21] and in assay [22] was Active.

`CCCCCCCCCCCCCCCCOC[C@@H](CO[C@@H]1O[C@H](CO)[C@@H](O)[C@H](O)[C@H]1N)OC`: the cytotoxic concentration (CC50) came out at 13.5 µM in [1]; 9 µM in assay [4]; 9 µM in [6]; 8 µM in assay [7]; 10 µM in assay [9]. The CC90 in assay [1] is 28 µM; in assay [4], 18 µM; in assay [6], 16 µM; in assay [7], 13 µM; in assay [9], 15 µM.

In general, CC50 refers to the concentration at which the toxic effect on the cells reaches its halfway point. A higher CC50 goes with better tolerance by the cells.
